# Test results taken from ChEMBL document CHEMBL3885881, “DrugMatrix”.
# Species: Rattus norvegicus
# Assay: DrugMatrix - Regimen: Daily Repeat
# Format: toxicity, organism-based, Sprague-Dawley
# Parameters: regimen Daily Repeat, gender Male, age 6-8 weeks
# Conditions: in vivo, po, route oral GAVAGE, vehicle .5 % CMC; for BASOPHIL / EOSINOPHIL / ERYTHROCYTE COUNT / HEMATOCRIT / HEMOGLOBIN / LYMPHOCYTE / MEAN CORPUSCULAR HEMOGLOBIN / MEAN CORPUSCULAR HEMOGLOBIN CONCENTRATION / MEAN CORPUSCULAR VOLUME / MONOCYTE / NEUTROPHIL / PLATELET COUNT: tissue Blood; for ALANINE AMINOTRANSFERASE / ALBUMIN / ALKALINE PHOSPHATASE / ASPARTATE AMINOTRANSFERASE / BLOOD UREA NITROGEN / CHLORIDE / CHOLESTEROL / CREATINE PHOSPHOKINASE / CREATININE / GLUCOSE / PHOSPHORUS / POTASSIUM / SODIUM / TOTAL BILIRUBIN / TOTAL PROTEIN: tissue Plasma
# [1] = 0 mg/kg, 72 h, dose level Control, time 3 day
# [2] = 0 mg/kg, 120 h, dose level Control, time 5 day
# [3] = 10 mg/kg, 72 h, dose level Low, time 3 day
# [4] = 10 mg/kg, 120 h, dose level Low, time 5 day
# [5] = 750 mg/kg, 72 h, dose level High, time 3 day
# [6] = 750 mg/kg, 120 h, dose level High, time 5 day
structure (smiles),measurement,setting,value
OCCN(CCO)c1nc(N2CCCCC2)c2nc(N(CCO)CCO)nc(N3CCCCC3)c2n1 [DIPYRIDAMOLE],BASOPHIL,[1],0%
same,EOSINOPHIL,[1],0%
same,ERYTHROCYTE COUNT,[1],6.34 x10E6/uL
same,HEMATOCRIT,[1],37.62%
same,HEMOGLOBIN,[1],14.82 G/DL
same,LYMPHOCYTE,[1],87.5%
same,MEAN CORPUSCULAR HEMOGLOBIN,[1],23.48 pg
same,MEAN CORPUSCULAR HEMOGLOBIN CONCENTRATION,[1],39.5 G/DL
same,MEAN CORPUSCULAR VOLUME,[1],59.45 fL
same,MONOCYTE,[1],1.67%
same,NEUTROPHIL,[1],10.83%
same,PLATELET COUNT,[1],1074.83 x10E3/uL
same,ALANINE AMINOTRANSFERASE,[1],36.5 u/L
same,ALBUMIN,[1],3.9 G/DL
same,ALKALINE PHOSPHATASE,[1],370.17 u/L
same,ASPARTATE AMINOTRANSFERASE,[1],63.17 u/L
same,BLOOD UREA NITROGEN,[1],16.83 mg/dL
same,CHLORIDE,[1],99.33 MEQ/L
same,CHOLESTEROL,[1],64.33 mg/dL
same,CREATINE PHOSPHOKINASE,[1],127 u/L
same,CREATININE,[1],0.55 mg/dL
same,GLUCOSE,[1],173.5 mg/dL
same,PHOSPHORUS,[1],10.08 mg/dL
same,POTASSIUM,[1],6.23 MEQ/L
same,SODIUM,[1],143.5 MEQ/L
same,TOTAL BILIRUBIN,[1],0.52 mg/dL
same,TOTAL PROTEIN,[1],6.35 G/DL
same,BASOPHIL,[2],0%
same,EOSINOPHIL,[2],0.17%
same,ERYTHROCYTE COUNT,[2],6.12 x10E6/uL
same,HEMATOCRIT,[2],37.08%
same,HEMOGLOBIN,[2],14.82 G/DL
same,LYMPHOCYTE,[2],83.33%
same,MEAN CORPUSCULAR HEMOGLOBIN,[2],24.25 pg
same,MEAN CORPUSCULAR HEMOGLOBIN CONCENTRATION,[2],39.97 G/DL
same,MEAN CORPUSCULAR VOLUME,[2],60.65 fL
same,MONOCYTE,[2],1.5%
same,NEUTROPHIL,[2],15%
same,PLATELET COUNT,[2],1042.83 x10E3/uL
same,ALANINE AMINOTRANSFERASE,[2],46 u/L
same,ALBUMIN,[2],3.82 G/DL
same,ALKALINE PHOSPHATASE,[2],369.5 u/L
same,ASPARTATE AMINOTRANSFERASE,[2],65 u/L
same,BLOOD UREA NITROGEN,[2],16.33 mg/dL
same,CHLORIDE,[2],100.67 MEQ/L
same,CHOLESTEROL,[2],57.17 mg/dL
same,CREATINE PHOSPHOKINASE,[2],130 u/L
same,CREATININE,[2],0.53 mg/dL
same,GLUCOSE,[2],163.33 mg/dL
same,PHOSPHORUS,[2],9.53 mg/dL
same,POTASSIUM,[2],6.27 MEQ/L
same,SODIUM,[2],144.83 MEQ/L
same,TOTAL BILIRUBIN,[2],0.55 mg/dL
same,TOTAL PROTEIN,[2],6.32 G/DL
same,BASOPHIL,[3],0%
same,EOSINOPHIL,[3],0.33%
same,ERYTHROCYTE COUNT,[3],6.75 x10E6/uL
same,HEMATOCRIT,[3],39.77%
same,HEMOGLOBIN,[3],15.7 G/DL
same,LYMPHOCYTE,[3],90.67%
same,MEAN CORPUSCULAR HEMOGLOBIN,[3],23.23 pg
same,MEAN CORPUSCULAR HEMOGLOBIN CONCENTRATION,[3],39.53 G/DL
same,MEAN CORPUSCULAR VOLUME,[3],58.8 fL
same,MONOCYTE,[3],0.33%
same,NEUTROPHIL,[3],8.67%
same,PLATELET COUNT,[3],1406 x10E3/uL
same,ALANINE AMINOTRANSFERASE,[3],42.67 u/L
same,ALBUMIN,[3],4.03 G/DL
same,ALKALINE PHOSPHATASE,[3],406.33 u/L
same,ASPARTATE AMINOTRANSFERASE,[3],71.33 u/L
same,BLOOD UREA NITROGEN,[3],15.67 mg/dL
same,CHLORIDE,[3],100.33 MEQ/L
same,CHOLESTEROL,[3],71 mg/dL
same,CREATINE PHOSPHOKINASE,[3],229.67 u/L
same,CREATININE,[3],0.53 mg/dL
same,GLUCOSE,[3],148.67 mg/dL
same,PHOSPHORUS,[3],11.33 mg/dL
same,POTASSIUM,[3],6.33 MEQ/L
same,SODIUM,[3],144.33 MEQ/L
same,TOTAL BILIRUBIN,[3],0.27 mg/dL
same,TOTAL PROTEIN,[3],6.57 G/DL
same,BASOPHIL,[4],0%
same,EOSINOPHIL,[4],0.5%
same,ERYTHROCYTE COUNT,[4],6.79 x10E6/uL
same,HEMATOCRIT,[4],39%
same,HEMOGLOBIN,[4],15.6 G/DL
same,LYMPHOCYTE,[4],87%
same,MEAN CORPUSCULAR HEMOGLOBIN,[4],23 pg
same,MEAN CORPUSCULAR HEMOGLOBIN CONCENTRATION,[4],40.05 G/DL
same,MEAN CORPUSCULAR VOLUME,[4],57.45 fL
same,MONOCYTE,[4],0.5%
same,NEUTROPHIL,[4],12%
same,PLATELET COUNT,[4],1171.5 x10E3/uL
same,ALANINE AMINOTRANSFERASE,[4],35 u/L
same,ALBUMIN,[4],3.8 G/DL
same,ALKALINE PHOSPHATASE,[4],332.33 u/L
same,ASPARTATE AMINOTRANSFERASE,[4],57 u/L
same,BLOOD UREA NITROGEN,[4],15 mg/dL
same,CHLORIDE,[4],100.67 MEQ/L
same,CHOLESTEROL,[4],70.33 mg/dL
same,CREATINE PHOSPHOKINASE,[4],146.33 u/L
same,CREATININE,[4],0.6 mg/dL
same,GLUCOSE,[4],207 mg/dL
same,PHOSPHORUS,[4],11.67 mg/dL
same,POTASSIUM,[4],5.6 MEQ/L
same,SODIUM,[4],143.67 MEQ/L
same,TOTAL BILIRUBIN,[4],0.43 mg/dL
same,TOTAL PROTEIN,[4],6.33 G/DL
same,BASOPHIL,[5],0%
same,EOSINOPHIL,[5],0.33%
same,ERYTHROCYTE COUNT,[5],6.25 x10E6/uL
same,HEMATOCRIT,[5],37.2%
same,HEMOGLOBIN,[5],14.47 G/DL
same,LYMPHOCYTE,[5],88.33%
same,MEAN CORPUSCULAR HEMOGLOBIN,[5],23.2 pg
same,MEAN CORPUSCULAR HEMOGLOBIN CONCENTRATION,[5],38.9 G/DL
same,MEAN CORPUSCULAR VOLUME,[5],59.57 fL
same,MONOCYTE,[5],1%
same,NEUTROPHIL,[5],10.33%
same,PLATELET COUNT,[5],1166.33 x10E3/uL
same,ALANINE AMINOTRANSFERASE,[5],38 u/L
same,ALBUMIN,[5],3.6 G/DL
same,ALKALINE PHOSPHATASE,[5],276.67 u/L
same,ASPARTATE AMINOTRANSFERASE,[5],56.33 u/L
same,BLOOD UREA NITROGEN,[5],13.33 mg/dL
same,CHLORIDE,[5],99 MEQ/L
same,CHOLESTEROL,[5],75.67 mg/dL
same,CREATINE PHOSPHOKINASE,[5],140 u/L
same,CREATININE,[5],0.53 mg/dL
same,GLUCOSE,[5],163.67 mg/dL
same,PHOSPHORUS,[5],11.63 mg/dL
same,POTASSIUM,[5],6.2 MEQ/L
same,SODIUM,[5],143 MEQ/L
same,TOTAL BILIRUBIN,[5],0.3 mg/dL
same,TOTAL PROTEIN,[5],5.77 G/DL
same,BASOPHIL,[6],0%
same,EOSINOPHIL,[6],0%
same,ERYTHROCYTE COUNT,[6],6.47 x10E6/uL
same,HEMATOCRIT,[6],38.13%
same,HEMOGLOBIN,[6],15 G/DL
same,LYMPHOCYTE,[6],90.33%
same,MEAN CORPUSCULAR HEMOGLOBIN,[6],23.2 pg
same,MEAN CORPUSCULAR HEMOGLOBIN CONCENTRATION,[6],39.33 G/DL
same,MEAN CORPUSCULAR VOLUME,[6],58.97 fL
same,MONOCYTE,[6],0.33%
same,NEUTROPHIL,[6],9.33%
same,PLATELET COUNT,[6],1245.33 x10E3/uL
same,ALANINE AMINOTRANSFERASE,[6],40 u/L
same,ALBUMIN,[6],3.73 G/DL
same,ALKALINE PHOSPHATASE,[6],320.33 u/L
same,ASPARTATE AMINOTRANSFERASE,[6],55 u/L
same,BLOOD UREA NITROGEN,[6],13.33 mg/dL
same,CHLORIDE,[6],98.33 MEQ/L
same,CHOLESTEROL,[6],72 mg/dL
same,CREATINE PHOSPHOKINASE,[6],136.67 u/L
same,CREATININE,[6],0.57 mg/dL
same,GLUCOSE,[6],158 mg/dL
same,PHOSPHORUS,[6],10.37 mg/dL
same,POTASSIUM,[6],6.03 MEQ/L
same,SODIUM,[6],144 MEQ/L
same,TOTAL BILIRUBIN,[6],0.4 mg/dL
same,TOTAL PROTEIN,[6],5.97 G/DL
